The values below come from patent US11697648B2, “Fused pyrimidine pyridinone compounds as JAK inhibitors” (THERAVANCE BIOPHARMA R&D IP, LLC, priority 2019, dated 2023).

One assay concerns the target JAK2 (Homo sapiens (Human), UniProt O60674). Briefly: Biochemical JAK2 kinase assay (LanthaScreen). Put shortly:
(§1)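 GST-JAK + GFP-STAT1 peptide, HEPES pH 7.5/MgCl2/EGTA/Brij-35 buffer; cpd preincubation 1 h RT; ATP start, 1 h RT; stop with 10 mM EDTA + 2 nM Tb-anti-pSTAT1; TR-FRET 520/495. 4-parameter IC50 → pKi (Cheng-Prusoff).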
(In general: In TR-FRET formats the signal depends on donor and acceptor labels being close together.)

In another assay the target is JAK1 (Homo sapiens (Human), UniProt P23458). As to the kind of experiment: Biochemical JAK1 kinase assay (LanthaScreen). Put shortly: as §1
For the next assay, the target named is JAK3 (Homo sapiens (Human), UniProt P52333). Briefly: Biochemical JAK3 kinase assay (LanthaScreen). Particulars: for JAK3 (pKi)-JAK1 (pKi): selectivity, difference of pKi values. Put shortly: as §1
The test system of assay [1] is IL-2 stimulated STAT5 phosphorylation in Tall-1 human T cell line (JAK3). As to the kind of experiment: Cellular JAK3 potency assay: inhibition of IL-2 stimulated pSTAT5 in Tall-1 T cells. Particulars: IL-2 stimulated pSTAT5 in Tall-1 T cells. The assay is classed as cell-based. An outline of the steps: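 Tall-1 cells, 45,000 per well, preincubated 1 hour with compound at 37 °C, then stimulated 30 minutes with IL-2 at 300 ng/ml final. pSTAT5 (Tyr694/699) in lysates quantified by AlphaLISA SureFire Ultra. pIC50 derived from inhibition curves, given as mean with SD.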

A further assay addresses Tyk2 (Homo sapiens (Human), UniProt P29597). As to the kind of experiment: Biochemical Tyk2 kinase assay (LanthaScreen). Put shortly:
as §1

Chain of JAK3 (P52333 whole entry): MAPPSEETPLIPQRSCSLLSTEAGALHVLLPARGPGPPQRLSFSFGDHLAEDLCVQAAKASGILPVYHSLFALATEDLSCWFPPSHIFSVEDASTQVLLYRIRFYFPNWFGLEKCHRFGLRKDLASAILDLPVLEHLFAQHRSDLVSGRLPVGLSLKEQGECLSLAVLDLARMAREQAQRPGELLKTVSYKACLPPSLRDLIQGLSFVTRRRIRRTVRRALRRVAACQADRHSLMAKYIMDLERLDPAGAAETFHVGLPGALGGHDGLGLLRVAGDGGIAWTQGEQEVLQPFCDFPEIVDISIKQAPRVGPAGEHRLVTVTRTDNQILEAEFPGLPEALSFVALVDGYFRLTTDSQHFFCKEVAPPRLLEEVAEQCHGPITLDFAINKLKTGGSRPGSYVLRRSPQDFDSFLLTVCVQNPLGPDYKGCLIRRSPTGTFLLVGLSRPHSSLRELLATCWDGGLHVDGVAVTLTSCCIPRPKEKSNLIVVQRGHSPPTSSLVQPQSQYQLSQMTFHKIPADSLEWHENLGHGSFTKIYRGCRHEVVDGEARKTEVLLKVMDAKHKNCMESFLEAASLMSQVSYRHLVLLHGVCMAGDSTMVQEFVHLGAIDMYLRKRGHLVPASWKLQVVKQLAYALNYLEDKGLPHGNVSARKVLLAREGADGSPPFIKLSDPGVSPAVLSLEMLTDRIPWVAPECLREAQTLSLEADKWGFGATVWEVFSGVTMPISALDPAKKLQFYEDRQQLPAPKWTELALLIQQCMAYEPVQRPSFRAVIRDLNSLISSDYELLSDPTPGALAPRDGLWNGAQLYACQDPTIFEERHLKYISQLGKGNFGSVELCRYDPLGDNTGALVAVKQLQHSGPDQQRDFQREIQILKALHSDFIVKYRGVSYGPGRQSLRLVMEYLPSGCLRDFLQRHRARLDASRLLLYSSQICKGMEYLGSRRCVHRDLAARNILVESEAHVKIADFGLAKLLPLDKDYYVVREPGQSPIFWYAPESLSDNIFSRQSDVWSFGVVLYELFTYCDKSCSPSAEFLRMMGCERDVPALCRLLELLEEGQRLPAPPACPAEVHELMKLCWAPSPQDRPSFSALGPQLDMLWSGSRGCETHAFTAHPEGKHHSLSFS
Chain of JAK1 (P23458 whole entry): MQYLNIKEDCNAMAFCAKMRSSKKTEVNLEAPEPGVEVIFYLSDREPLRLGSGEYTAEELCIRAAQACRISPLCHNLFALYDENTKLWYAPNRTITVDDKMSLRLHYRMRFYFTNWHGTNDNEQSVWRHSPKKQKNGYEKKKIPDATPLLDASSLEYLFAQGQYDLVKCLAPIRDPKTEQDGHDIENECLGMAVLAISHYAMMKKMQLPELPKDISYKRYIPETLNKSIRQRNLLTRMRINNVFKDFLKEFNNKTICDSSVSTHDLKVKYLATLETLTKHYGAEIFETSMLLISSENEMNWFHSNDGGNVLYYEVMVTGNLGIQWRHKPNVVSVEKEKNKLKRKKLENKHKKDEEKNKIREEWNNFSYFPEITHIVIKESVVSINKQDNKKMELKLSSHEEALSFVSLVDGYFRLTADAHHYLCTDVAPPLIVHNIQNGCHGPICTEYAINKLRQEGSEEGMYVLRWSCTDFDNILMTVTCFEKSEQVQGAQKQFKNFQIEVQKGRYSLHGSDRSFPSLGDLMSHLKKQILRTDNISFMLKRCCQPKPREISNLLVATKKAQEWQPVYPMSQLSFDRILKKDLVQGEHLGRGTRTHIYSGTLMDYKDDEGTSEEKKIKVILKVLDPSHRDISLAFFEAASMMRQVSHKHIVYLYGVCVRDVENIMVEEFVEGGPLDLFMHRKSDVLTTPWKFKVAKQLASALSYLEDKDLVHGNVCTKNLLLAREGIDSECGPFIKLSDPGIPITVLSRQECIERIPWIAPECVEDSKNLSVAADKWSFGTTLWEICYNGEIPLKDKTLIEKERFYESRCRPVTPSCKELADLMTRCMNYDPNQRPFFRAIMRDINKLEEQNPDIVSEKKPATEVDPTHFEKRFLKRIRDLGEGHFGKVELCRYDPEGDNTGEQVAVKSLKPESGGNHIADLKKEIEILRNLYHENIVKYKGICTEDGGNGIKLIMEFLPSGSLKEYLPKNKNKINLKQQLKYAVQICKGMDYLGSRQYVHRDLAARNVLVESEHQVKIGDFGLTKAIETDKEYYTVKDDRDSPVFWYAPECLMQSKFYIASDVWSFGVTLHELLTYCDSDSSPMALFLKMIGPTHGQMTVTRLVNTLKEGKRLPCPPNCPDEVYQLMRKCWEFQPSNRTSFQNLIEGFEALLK
Chain of Tyk2 (P29597 whole entry): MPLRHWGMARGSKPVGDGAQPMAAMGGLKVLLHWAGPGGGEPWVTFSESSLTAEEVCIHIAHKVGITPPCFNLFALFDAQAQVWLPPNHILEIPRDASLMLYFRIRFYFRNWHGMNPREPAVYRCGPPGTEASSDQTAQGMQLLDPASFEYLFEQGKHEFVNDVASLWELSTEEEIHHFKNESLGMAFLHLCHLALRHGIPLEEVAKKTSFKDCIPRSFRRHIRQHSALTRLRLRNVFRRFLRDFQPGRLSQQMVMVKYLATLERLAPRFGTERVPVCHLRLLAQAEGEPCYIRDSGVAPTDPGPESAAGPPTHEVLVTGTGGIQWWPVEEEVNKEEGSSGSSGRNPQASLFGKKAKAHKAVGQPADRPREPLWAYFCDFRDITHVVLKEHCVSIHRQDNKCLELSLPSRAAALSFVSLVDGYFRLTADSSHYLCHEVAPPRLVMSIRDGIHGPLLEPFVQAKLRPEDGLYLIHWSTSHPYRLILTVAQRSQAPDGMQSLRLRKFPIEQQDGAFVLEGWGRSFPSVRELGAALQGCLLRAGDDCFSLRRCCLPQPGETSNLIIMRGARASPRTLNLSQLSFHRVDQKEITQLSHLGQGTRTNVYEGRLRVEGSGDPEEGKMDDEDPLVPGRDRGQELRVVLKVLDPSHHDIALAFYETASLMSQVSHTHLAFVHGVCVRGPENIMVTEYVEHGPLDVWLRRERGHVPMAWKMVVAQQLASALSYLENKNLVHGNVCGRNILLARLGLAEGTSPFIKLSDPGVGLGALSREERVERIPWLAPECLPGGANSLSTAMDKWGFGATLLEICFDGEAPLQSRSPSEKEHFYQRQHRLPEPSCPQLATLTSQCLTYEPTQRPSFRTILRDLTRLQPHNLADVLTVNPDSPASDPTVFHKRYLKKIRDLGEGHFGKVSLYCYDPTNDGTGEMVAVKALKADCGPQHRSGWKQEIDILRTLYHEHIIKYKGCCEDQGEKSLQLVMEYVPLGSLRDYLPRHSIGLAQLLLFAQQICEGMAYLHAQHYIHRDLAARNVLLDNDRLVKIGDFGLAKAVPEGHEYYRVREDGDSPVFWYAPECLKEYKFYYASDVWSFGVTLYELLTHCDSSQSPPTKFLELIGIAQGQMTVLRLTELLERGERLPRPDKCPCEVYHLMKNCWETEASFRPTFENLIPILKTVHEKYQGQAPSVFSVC
Chain of JAK2 (O60674 whole entry): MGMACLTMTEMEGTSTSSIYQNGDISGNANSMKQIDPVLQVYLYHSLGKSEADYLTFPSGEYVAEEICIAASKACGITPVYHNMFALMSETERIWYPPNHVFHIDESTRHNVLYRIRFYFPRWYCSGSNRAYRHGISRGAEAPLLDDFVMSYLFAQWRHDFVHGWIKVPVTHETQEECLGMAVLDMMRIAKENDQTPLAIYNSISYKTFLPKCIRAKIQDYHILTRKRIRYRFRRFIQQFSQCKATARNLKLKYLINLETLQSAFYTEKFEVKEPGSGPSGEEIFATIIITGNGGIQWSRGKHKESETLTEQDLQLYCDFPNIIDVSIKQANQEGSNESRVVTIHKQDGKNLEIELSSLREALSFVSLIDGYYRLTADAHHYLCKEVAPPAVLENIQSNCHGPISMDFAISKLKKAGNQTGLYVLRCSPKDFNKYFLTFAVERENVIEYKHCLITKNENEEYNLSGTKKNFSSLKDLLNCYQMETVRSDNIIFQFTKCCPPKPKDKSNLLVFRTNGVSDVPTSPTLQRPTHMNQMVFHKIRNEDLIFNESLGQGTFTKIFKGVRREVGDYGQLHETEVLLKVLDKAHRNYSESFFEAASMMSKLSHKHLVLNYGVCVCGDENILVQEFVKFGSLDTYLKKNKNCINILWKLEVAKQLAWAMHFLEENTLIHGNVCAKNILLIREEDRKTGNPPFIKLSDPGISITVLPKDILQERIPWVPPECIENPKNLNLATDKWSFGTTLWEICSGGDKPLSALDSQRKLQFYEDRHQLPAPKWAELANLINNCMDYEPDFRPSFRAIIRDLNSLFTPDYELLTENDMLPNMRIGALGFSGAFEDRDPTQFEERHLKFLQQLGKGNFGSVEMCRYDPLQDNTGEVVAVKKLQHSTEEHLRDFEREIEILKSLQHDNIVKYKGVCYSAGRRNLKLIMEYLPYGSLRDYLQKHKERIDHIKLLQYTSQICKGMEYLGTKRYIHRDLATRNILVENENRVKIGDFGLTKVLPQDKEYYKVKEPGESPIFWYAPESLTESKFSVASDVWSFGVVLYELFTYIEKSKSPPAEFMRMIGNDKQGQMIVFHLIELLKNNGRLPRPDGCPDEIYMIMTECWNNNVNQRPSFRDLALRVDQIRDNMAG

As for `C=CC(=O)N1CCN(CCn2c(=O)ccc3cnc(Nc4cnn(CC)c4)nc32)[C@@H](CC)C1` [Example 242], the “JAK 2 (pKi)” value at JAK2 is recorded as “E (E represents a pKi value of 7 or below (Ki of 100 nM or above))”. Also, the “JAK 1 (pKi)” value on JAK1 is given as “E (E represents a pKi value of 7 or below (Ki of 100 nM or above))”. In addition, at JAK3, the “JAK 3 (pKi)” value was “B (B represents pKi value between 9 and 10 (Ki between 1 nM and 0.1 nM))”; the “JAK3 (pKi)-JAK1 (pKi)” value is on record as “A (A represents a value of 3 or above)”. Besides, the “Tall-1 (pIC50)” value in assay [1] was “B (B represents a pC50 value between 6.7 (included) and 7.5 (IC50 between 200 nM and 32 nM))”. The “Tyk 2 (pKi)” value at Tyk2 is given as “E (E represents a pKi value of 7 or below (Ki of 100 nM or above))”.
As to `C=CC(=O)N1CCN(CCn2c(=O)ccc3cnc(Nc4cnn(CC)c4)nc32)[C@@H](C)C1` [Example 243], the “JAK 2 (pKi)” value at JAK2 was “E (E represents a pKi value of 7 or below (Ki of 100 nM or above))”. The “JAK 1 (pKi)” value on JAK1 is given as “E (E represents a pKi value of 7 or below (Ki of 100 nM or above))”. Moreover, on JAK3, the “JAK 3 (pKi)” value was “B (B represents pKi value between 9 and 10 (Ki between 1 nM and 0.1 nM))”; the “JAK3 (pKi)-JAK1 (pKi)” value is listed as “A (A represents a value of 3 or above)”. Further, the “Tall-1 (pIC50)” value in assay [1] is “B (B represents a pC50 value between 6.7 (included) and 7.5 (IC50 between 200 nM and 32 nM))”. In addition, the “Tyk 2 (pKi)” value on Tyk2 was “E (E represents a pKi value of 7 or below (Ki of 100 nM or above))”.
For the compound `C=CC(=O)N1CCN(CCn2c(=O)ccc3cnc(Nc4cnn(CCN5CCOCC5)c4)nc32)[C@@H](CC)C1` [Example 244], the “JAK 2 (pKi)” value at JAK2 is recorded as “E (E represents a pKi value of 7 or below (Ki of 100 nM or above))”. Besides, on JAK1, the “JAK 1 (pKi)” value was “E (E represents a pKi value of 7 or below (Ki of 100 nM or above))”. For the same compound, on JAK3, the “JAK 3 (pKi)” value was “B (B represents pKi value between 9 and 10 (Ki between 1 nM and 0.1 nM))”; the “JAK3 (pKi)-JAK1 (pKi)” value is on record as “A (A represents a value of 3 or above)”. Moreover, in assay [1], the “Tall-1 (pIC50)” value is “B (B represents a pC50 value between 6.7 (included) and 7.5 (IC50 between 200 nM and 32 nM))”. Besides, the “Tyk 2 (pKi)” value on Tyk2 was “E (E represents a pKi value of 7 or below (Ki of 100 nM or above))”.
`C=CC(=O)N1CCN(CCn2c(=O)ccc3cnc(Nc4cnn(CCN5CCOCC5)c4)nc32)[C@@H](C)C1` [Example 245]: the “JAK 2 (pKi)” value on JAK2 is “E (E represents a pKi value of 7 or below (Ki of 100 nM or above))”. Besides, on JAK1, the “JAK 1 (pKi)” value is reported as “E (E represents a pKi value of 7 or below (Ki of 100 nM or above))”. Moreover, at JAK3, the “JAK 3 (pKi)” value is “B (B represents pKi value between 9 and 10 (Ki between 1 nM and 0.1 nM))”; the “JAK3 (pKi)-JAK1 (pKi)” value was “A (A represents a value of 3 or above)”. Besides, the “Tall-1 (pIC50)” value in assay [1] is “B (B represents a pC50 value between 6.7 (included) and 7.5 (IC50 between 200 nM and 32 nM))”. Also, the “Tyk 2 (pKi)” value on Tyk2 is “E (E represents a pKi value of 7 or below (Ki of 100 nM or above))”.
On to `C=CC(=O)N1CC(C(C)(C)Cn2c(=O)ccc3cnc(Nc4ccc(N5CCN(C)CC5)cc4)nc32)C1` [Example 246], for which the “JAK 2 (pKi)” value at JAK2 is “E (E represents a pKi value of 7 or below (Ki of 100 nM or above))”. The “JAK 1 (pKi)” value at JAK1 is reported as “E (E represents a pKi value of 7 or below (Ki of 100 nM or above))”. For the same compound, at JAK3, the “JAK 3 (pKi)” value was “B (B represents pKi value between 9 and 10 (Ki between 1 nM and 0.1 nM))”; the “JAK3 (pKi)-JAK1 (pKi)” value was “A (A represents a value of 3 or above)”. In addition, the “Tall-1 (pIC50)” value in assay [1] is “B (B represents a pC50 value between 6.7 (included) and 7.5 (IC50 between 200 nM and 32 nM))”. Further, on Tyk2, the “Tyk 2 (pKi)” value is “E (E represents a pKi value of 7 or below (Ki of 100 nM or above))”.
Regarding `C=CC(=O)N1CC(CCn2c(=O)ccc3cnc(Nc4ccc(N5C[C@@H](C)N(C)[C@@H](C)C5)cc4)nc32)C1` [Example 247], the “JAK 2 (pKi)” value at JAK2 was “E (E represents a pKi value of 7 or below (Ki of 100 nM or above))”. Besides, at JAK1, the “JAK 1 (pKi)” value was “E (E represents a pKi value of 7 or below (Ki of 100 nM or above))”. On JAK3, the “JAK 3 (pKi)” value was “B (B represents pKi value between 9 and 10 (Ki between 1 nM and 0.1 nM))”; the “JAK3 (pKi)-JAK1 (pKi)” value is given as “A (A represents a value of 3 or above)”. In addition, the “Tall-1 (pIC50)” value in assay [1] is listed as “A (A represents a pIC50 value≥7.5 (IC50≤32 nM))”. The “Tyk 2 (pKi)” value on Tyk2 is reported as “E (E represents a pKi value of 7 or below (Ki of 100 nM or above))”.
On to `C=CC(=O)N1CCN(CCn2c(=O)ccc3cnc(Nc4ccc(N5C[C@@H](C)N(C)[C@@H](C)C5)cc4)nc32)CC1` [Example 248], for which, at JAK2, the “JAK 2 (pKi)” value is reported as “E (E represents a pKi value of 7 or below (Ki of 100 nM or above))”. Moreover, on JAK1, the “JAK 1 (pKi)” value is on record as “E (E represents a pKi value of 7 or below (Ki of 100 nM or above))”. For the same compound, on JAK3, the “JAK 3 (pKi)” value was “B (B represents pKi value between 9 and 10 (Ki between 1 nM and 0.1 nM))”; the “JAK3 (pKi)-JAK1 (pKi)” value is reported as “A (A represents a value of 3 or above)”. Besides, the “Tall-1 (pIC50)” value in assay [1] was “A (A represents a pIC50 value≥7.5 (IC50≤32 nM))”. Further, the “Tyk 2 (pKi)” value at Tyk2 is given as “E (E represents a pKi value of 7 or below (Ki of 100 nM or above))”.
As for `C=CC(=O)N1CCN(CCn2c(=O)ccc3cnc(Nc4ccc(N5C[C@@H](C)N(C)[C@@H](C)C5)cc4)nc32)[C@@H](C)C1` [Example 249], the “JAK 2 (pKi)” value on JAK2 was “E (E represents a pKi value of 7 or below (Ki of 100 nM or above))”. For the same compound, on JAK1, the “JAK 1 (pKi)” value is reported as “E (E represents a pKi value of 7 or below (Ki of 100 nM or above))”. Moreover, at JAK3, the “JAK 3 (pKi)” value is “B (B represents pKi value between 9 and 10 (Ki between 1 nM and 0.1 nM))”; the “JAK3 (pKi)-JAK1 (pKi)” value is “A (A represents a value of 3 or above)”. Also, in assay [1], the “Tall-1 (pIC50)” value is on record as “A (A represents a pIC50 value≥7.5 (IC50≤32 nM))”. For the same compound, the “Tyk 2 (pKi)” value at Tyk2 is “E (E represents a pKi value of 7 or below (Ki of 100 nM or above))”.
For the compound `C=CC(=O)N1CCN(CCn2c(=O)ccc3cnc(Nc4cnn(C5CCOCC5)c4)nc32)[C@@H](C)C1` [Example 250], the “JAK 2 (pKi)” value on JAK2 is recorded as “E (E represents a pKi value of 7 or below (Ki of 100 nM or above))”. For the same compound, the “JAK 1 (pKi)” value at JAK1 is “E (E represents a pKi value of 7 or below (Ki of 100 nM or above))”. Moreover, on JAK3, the “JAK 3 (pKi)” value was “B (B represents pKi value between 9 and 10 (Ki between 1 nM and 0.1 nM))”; the “JAK3 (pKi)-JAK1 (pKi)” value is given as “A (A represents a value of 3 or above)”. For the same compound, the “Tall-1 (pIC50)” value in assay [1] is “B (B represents a pC50 value between 6.7 (included) and 7.5 (IC50 between 200 nM and 32 nM))”. Moreover, the “Tyk 2 (pKi)” value at Tyk2 was “E (E represents a pKi value of 7 or below (Ki of 100 nM or above))”.
On to `C=CC(=O)N1CCN(CCn2c(=O)ccc3cnc(Nc4ccc(N5CCN(C)[C@@H](C)C5)cc4)nc32)[C@@H](C)C1` [Example 251], for which, on JAK2, the “JAK 2 (pKi)” value is reported as “E (E represents a pKi value of 7 or below (Ki of 100 nM or above))”. Besides, at JAK1, the “JAK 1 (pKi)” value is on record as “E (E represents a pKi value of 7 or below (Ki of 100 nM or above))”. Also, on JAK3, the “JAK 3 (pKi)” value was “B (B represents pKi value between 9 and 10 (Ki between 1 nM and 0.1 nM))”; the “JAK3 (pKi)-JAK1 (pKi)” value was “A (A represents a value of 3 or above)”. Besides, the “Tall-1 (pIC50)” value in assay [1] was “B (B represents a pC50 value between 6.7 (included) and 7.5 (IC50 between 200 nM and 32 nM))”. The “Tyk 2 (pKi)” value at Tyk2 is recorded as “E (E represents a pKi value of 7 or below (Ki of 100 nM or above))”.
Turning to `C=CC(=O)N1CCN(CCn2c(=O)ccc3cnc(Nc4ccc(N5CCN(C)[C@@H](C)C5)nc4)nc32)[C@@H](C)C1` [Example 252], the “JAK 2 (pKi)” value on JAK2 is given as “E (E represents a pKi value of 7 or below (Ki of 100 nM or above))”. In addition, on JAK1, the “JAK 1 (pKi)” value is recorded as “E (E represents a pKi value of 7 or below (Ki of 100 nM or above))”. Moreover, on JAK3, the “JAK 3 (pKi)” value is “B (B represents pKi value between 9 and 10 (Ki between 1 nM and 0.1 nM))”; the “JAK3 (pKi)-JAK1 (pKi)” value is on record as “A (A represents a value of 3 or above)”. In addition, the “Tall-1 (pIC50)” value in assay [1] is “B (B represents a pC50 value between 6.7 (included) and 7.5 (IC50 between 200 nM and 32 nM))”. Besides, the “Tyk 2 (pKi)” value on Tyk2 is “E (E represents a pKi value of 7 or below (Ki of 100 nM or above))”.
